According to patent US20250052744A1, “Dyes and Uses Thereof” (The University of Liverpool, priority 2021, published 2025):

Columns and labels:
Experiment in all cases: Bacterial growth with dyes, optical density after 24 hours
Type in all cases: cell-based
Settings in all cases: with 3 μM DiSC3(5) and 3 μM SYTO 13/9
[1] = system: Enterococcus faecium NCTCT 7171
Description: (§1) FIG. 3 is a graph showing is a graph showing the average optical density after 24 hours (OD 600) of P. Aeruginosa NCTC 10332, E. Coli SEC 31, Enterococcus faecium NCTCT 7171, P. Mirabilis NCTC 11938, S. Aureus NCTC 8532 and Klebsiella pneumoniae NCTC 9633, when incubated with DiSC3(5), SYBR Green I and SYTO 13/9 where different concentrations of SYBR Green I were assessed.
as §1, with “FIG. 4” for “FIG. 3”, “of SYTO 13/9” for “of SYBR Green I”
(§2) Comparative experiments were conducted using multiple DNA dyes in low concentration and one DNA at different (and higher) concentration in order to establish whether increasing DNA dye concentration would affect bacterial growth and hinder the differentiation of bacterial strains.
(§3) Experiments were conducted which were similar to Example 1.
(§4) In one experiment, 3 μM of DiSC3(5) and 3 μM of SYTO 13/9 was assessed with CYBR Green I at the following concentrations: 1× average, 3× average, 10× average, 30 average and 100× average.
(§5) In another experiment, 3 μM of DiSC3(5) and 10× of CYBR Green I was assessed with SYTO 13/9 at the following concentrations: 1 μM average, 3 μM average and 10 μM average.

[2] = system: Klebsiella pneumoniae NCTC 9633
Description: as §1
as §1, with “FIG. 4” for “FIG. 3”, “of SYTO 13/9” for “of SYBR Green I”
as §2, §3, §4, §5

[3] = system: P. Aeruginosa NCTC 10332
Description: as §1
as §1, with “FIG. 4” for “FIG. 3”, “of SYTO 13/9” for “of SYBR Green I”
as §2, §3, §4, §5

[4] = system: P. Mirabilis NCTC 11938
Description: as §1
as §1, with “FIG. 4” for “FIG. 3”, “of SYTO 13/9” for “of SYBR Green I”
as §2, §3, §4, §5

[5] = system: S. Aureus NCTC 8532
Description: as §1
as §1, with “FIG. 4” for “FIG. 3”, “of SYTO 13/9” for “of SYBR Green I”
as §2, §3, §4, §5

[6] = system: E. Coli SEC 31
Description: as §1
as §1, with “FIG. 4” for “FIG. 3”, “of SYTO 13/9” for “of SYBR Green I”
as §2, §3, §4, §5

CCCN(CCCN(C)C)c1cc(/C=C2/Sc3ccccc3N2C)c2ccccc2[n+]1-c1ccccc1 [SYBR Green I, N′,N′-dimethyl-N-[4-[(E)-(3-methyl-1,3-benzothiazol-2-ylidene)methyl]-1-phenylquinolin-1-ium-2-yl]-N-propylpropane-1,3-diamine]
average optical density after 24 hours (OD 600) ([1]; SYBR Green I 1x): 1.158
average optical density after 24 hours (OD 600) ([1]; SYBR Green I 3x): 1.315
average optical density after 24 hours (OD 600) ([1]; SYBR Green I 10x): 0.136
average optical density after 24 hours (OD 600) ([1]; SYBR Green I 30x): 0
average optical density after 24 hours (OD 600) ([1]; SYBR Green I 100x): 0.022
average optical density after 24 hours (OD 600) ([2]; SYBR Green I 1x): 4.719
average optical density after 24 hours (OD 600) ([2]; SYBR Green I 3x): 4.907
average optical density after 24 hours (OD 600) ([2]; SYBR Green I 10x): 3.439
average optical density after 24 hours (OD 600) ([2]; SYBR Green I 30x): 2.053
average optical density after 24 hours (OD 600) ([2]; SYBR Green I 100x): 1.138
average optical density after 24 hours (OD 600) ([3]; SYBR Green I 1x): 5.785
average optical density after 24 hours (OD 600) ([3]; SYBR Green I 3x): 5.785
average optical density after 24 hours (OD 600) ([3]; SYBR Green I 10x): 2.968
average optical density after 24 hours (OD 600) ([3]; SYBR Green I 30x): 3.113
average optical density after 24 hours (OD 600) ([3]; SYBR Green I 100x): 2.39
average optical density after 24 hours (OD 600) ([4]; SYBR Green I 1x): 5.785
average optical density after 24 hours (OD 600) ([4]; SYBR Green I 3x): 5.785
average optical density after 24 hours (OD 600) ([4]; SYBR Green I 10x): 4.635
average optical density after 24 hours (OD 600) ([4]; SYBR Green I 30x): 4.044
average optical density after 24 hours (OD 600) ([4]; SYBR Green I 100x): 0.001
average optical density after 24 hours (OD 600) ([5]; SYBR Green I 1x): 3.796
average optical density after 24 hours (OD 600) ([5]; SYBR Green I 3x): 0
average optical density after 24 hours (OD 600) ([5]; SYBR Green I 10x): 0
average optical density after 24 hours (OD 600) ([5]; SYBR Green I 30x): 0
average optical density after 24 hours (OD 600) ([5]; SYBR Green I 100x): 0
average optical density after 24 hours (OD 600) ([6]; SYBR Green I 1x): 3.407
average optical density after 24 hours (OD 600) ([6]; SYBR Green I 3x): 3.306
average optical density after 24 hours (OD 600) ([6]; SYBR Green I 10x): 3.139
average optical density after 24 hours (OD 600) ([6]; SYBR Green I 30x): 2.086
average optical density after 24 hours (OD 600) ([6]; SYBR Green I 100x): 2.514
